The text below walks through data of BindingDB's records for doi:10.1016/s0006-291x(02)03054-1 (Pharmacia, 2003).

SMILES strings stand for the structures.

For the assay, the target named is FMRFamide-like neuropeptides 14 (Ascaris).

Turning to `Nc1nc2c(ncn2C2OC(COP(=O)(O)OP(=O)(O)OP(=O)(O)O)C(O)C2O)c(=O)[nH]1` (stereo unspecified) [CAS_6830], the Ki was found to be 10.5 nM.

The term Ki denotes a measure of affinity in units of concentration, obtained from inhibition or displacement. Lower therefore signals tighter binding.
